Source: patent publication US20250250240A1, “PHENAZINE COMPOUND FOR MEASURING BACTERIAL EFFLUX” (priority 2022, published 2025)
Entries after “also recorded” stand apart in the source; their conditions may differ.

Key:
AcrAB efflux pump [1] = assay: Bacterial staining (pellet colour) test for AcrAB efflux pump activity; format: cell-based, Escherichia coli; conditions: 1 μg/mL, 15 min
Description: The experimental protocol is the same as that described in the previous examples, except for the bacterial strains used. Briefly, compounds 29 and 392 (1 μg/mL) were added to 5 mL of a cell suspension of different E. coli strains (OD=1.5), mixed by tilting and left to stand on the table at room temperature for 15 min. The cells were then centrifuged at 3500 rpm for 10 min and rinsed with potassium phosphate buffer (PBP). The cell pellet was washed only once.

NorA efflux pump [2] = assay: Relative fluorescence intensity of treated strains fixed with PFA or ethanol; format: cell-based, Staphylococcus aureus; conditions: fixing agent 1% w/v PFA or 70% cold ethanol; CIP 76.25, SA, SA1199B, SA K1758
Source text: (§1) The results are consistent with those obtained previously. […] The inventors also tested the impact that a fixing agent such as 1% w/v paraformaldehyde (PFA) or 70% cold ethanol might have on cells treated with compound 053.

NorA efflux pump [3] = assay: Bacterial staining (pellet colour) test for NorA efflux pump activity; format: cell-based, Staphylococcus aureus; conditions: 0.75 μg/mL, 15 min
Description: (§2) Bacterial strains: The inventors used the following strains of Staphylococcus aureus: • CIP 76.25, a reference strain producing a basal level of NorA, • SA1199, a reference strain producing a basal level of NorA, • SA 1199B, an overproducer of the NorA pump, and • SA K1758 with the NorA gene deleted, (Kaatz et al., 2003, Antimicrob Agents Chemother. 2003 February; 47(2): 719-26).
(§3) Bacterial staining: Bacteria in exponential growth phase are incubated for 15 min in the presence of compound 053. The bacteria are then washed twice in phosphate buffer and centrifuged, with the pellets observed with the naked eye.
The following protocol was followed: • 1. Grow bacteria on a freshly prepared Muller Hilton-II (MH-II) agar plate. Incubate the Petri dish overnight at 37° C. (Note: Incubation temperature and growth time depend on the bacteria used in the experiment). • 2. The next morning, pick one or two colonies from the overnight plate and inoculate them in an Erlenmeyer flask containing 20 mL MH-II broth. • 3. Incubate the Erlenmeyer on an orbital shaker at 37° C. and 160 rpm for 3-4 hrs. Note: This step allows us to obtain cells in exponential phase, so we need to consider the doubling time of the bacteria used. • 4. After incubation, transfer the cells to a centrifuge tube and centrifuge at 4500 rpm for 10 minutes. Discard supernatant. Add fresh MH-II broth to the centrifuge tube and adjust the optical density of the cells to 0.5. • 5. Transfer an aliquot (5 mL) of cells with adjusted optical density to a new centrifuge tube (50 mL). Add 3.75 μL of compound 053 stock solution (1000 μg/mL) to this tube. Cap the tubes and shake thoroughly to mix the compound. Then keep the centrifuge tube on the table for 15 minutes at room temperature. Note: It is preferable to have a larger surface area to facilitate agitation. The final concentration of 053 used in the experiment is 0.75 μg/mL. […] After 15 minutes contact time, centrifuge the tubes for 10-15 minutes at 4500 rpm to obtain cell pellets and discard supernatant. […]

NorA efflux pump [4] = assay: Fluorescence measurement (spectrofluorimetry, excitation 530 nm) of treated bacteria; format: cell-based, Staphylococcus aureus
Description: as §2
(§4) Fluorescence measurement: Bacteria in exponential growth phase are incubated for 15 min in the presence of compound 053. The optical density at 600 nm is then adjusted to 0.5 and 50 μL is transferred to a black microtiter plate. Fluorescence is read in a Tecan M200 microplate reader.

BmrA efflux pump [5] = assay: Bacterial staining (pellet colour) test on BmrA efflux pump mutants; format: cell-based, Bacillus subtilis; conditions: BmrAΔ (BmrA deleted); 0.75 μg/mL
Description: as §3
(§5) The following protocol was followed: • 1. Grow bacteria on a freshly prepared Muller Hilton-II (MH-II) agar plate. Incubate the Petri dish overnight at 37° C. (Note: Incubation temperature and growth time depend on the bacteria used in the experiment). • 2. The next morning, pick one or two colonies from the overnight plate and inoculate them in an Erlenmeyer flask containing 20 mL MH-II broth. • 3. Incubate the Erlenmeyer on an orbital shaker at 37° C. and 160 rpm for 3-4 hrs. Note: This step allows us to obtain cells in exponential phase, so we need to consider the doubling time of the bacteria used. • 4. After incubation, transfer the cells to a centrifuge tube and centrifuge at 4500 rpm for 10 minutes. Discard supernatant. Add fresh MH-II broth to the centrifuge tube and adjust the optical density of the cells to 0.5. • 5. Transfer an aliquot (5 mL) of cells with adjusted optical density to a new centrifuge tube (50 mL). Add 3.75 μL of compound 053 stock solution (1000 μg/mL) to this tube. Cap the tubes and shake thoroughly to mix the compound. Then keep the centrifuge tube on the table for 15 minutes at room temperature. Note: It is preferable to have a larger surface area to facilitate agitation. The final concentration of 053 used in the experiment is 0.75 μg/mL. […] After 15 minutes contact time, centrifuge the tubes for 10-15 minutes at 4500 rpm to obtain cell pellets and discard supernatant. Using 5 mL of phosphate- or potassium phosphate-buffered saline (PBS, pH7), wash the cell pellets thoroughly (PBS, pH7), repeating this operation twice. Note: Pipette several times with a 5 mL or 1 mL pipette during washing. Make sure there are no lumps during pipetting. The purpose of washing is to remove excess dye from the cell surface. • 7. The color variation in the cells is visible to the naked eye on the cell pellet after the two washes. • a. […]

BmrA efflux pump [6] = target: T1, BmrA efflux pump (Bacillus subtilis, UniProt O06967); assay: as above; format: cell-based; conditions: 0.75 μg/mL
T1 construct: endogenous in cells; host or cells: Bacillus subtilis 168 (DSM 402), BmrA+++ overproducer, BmrA deletion strain
T1 sequence (O06967 whole entry): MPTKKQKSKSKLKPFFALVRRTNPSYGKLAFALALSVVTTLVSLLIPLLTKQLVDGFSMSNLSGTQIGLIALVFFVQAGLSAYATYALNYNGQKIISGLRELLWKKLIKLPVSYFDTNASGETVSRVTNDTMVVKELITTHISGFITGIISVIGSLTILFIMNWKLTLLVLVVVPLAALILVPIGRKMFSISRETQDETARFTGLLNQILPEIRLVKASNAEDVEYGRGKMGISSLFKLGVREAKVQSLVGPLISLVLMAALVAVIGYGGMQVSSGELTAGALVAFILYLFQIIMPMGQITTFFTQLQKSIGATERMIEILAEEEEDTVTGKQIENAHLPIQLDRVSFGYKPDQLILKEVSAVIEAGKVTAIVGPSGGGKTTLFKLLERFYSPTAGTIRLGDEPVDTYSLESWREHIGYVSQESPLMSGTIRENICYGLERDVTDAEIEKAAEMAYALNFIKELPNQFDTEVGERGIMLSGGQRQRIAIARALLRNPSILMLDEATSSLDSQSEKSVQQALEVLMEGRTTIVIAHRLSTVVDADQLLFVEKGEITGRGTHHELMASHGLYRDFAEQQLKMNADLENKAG
Description: as §3, §5

PatA-PatB transporter = assay: Bacterial staining (pellet colour) test on PatA-PatB transporter mutants; format: cell-based, Streptococcus pneumoniae; conditions: 1 μg/mL
Description: as §3
as §5, with “agitation.” for “agitation. The final concentration of 053 used in the experiment is 0.75 μg/mL.”

NorA efflux pump [7] = assay: Fluorescence reading by flow cytometry of treated bacteria; format: cell-based, Staphylococcus aureus
Source text: The inventors also carried out a fluorescence reading by flow cytometry in order to validate the results previously obtained by spectrofluorimetry. Advantageously, flow cytometry considers only the fluorescence within the cell and not surrounding it, thus enabling direct assessment of the concentration of compound 053 within the cell without the need for rinsing.
as §1

BmrA efflux pump [8] = assay: Fluorescence measurement (spectrofluorimetry) on BmrA efflux pump mutants; format: cell-based, Bacillus subtilis; conditions: pump-free mutant (BmrAΔ)
Description: as §4
(§6) Bacterial strains: The inventors used • the reference strain Bacillus subtilis 168 (DSM 402) producing a basal level of BmrA, • Bacillus subtilis BmrA+++ overproducing the BmrA pump and • Bacillus subtilis BmrA Δ with the BmrA gene deleted. • (see Steinfels E et al. Biochemistry 43:7491-7502 and Krügel Het al. FEMS Microbiol Lett. 2010 December; 313(2): 155-63).
(§7) The protocols used are identical to those used in example 2-1.

BmrA efflux pump [9] = target: T1, BmrA efflux pump; assay: as above; format: cell-based
Description: as §4, §6, §7

AcrAB efflux pump [10] = target: T2, AcrAB efflux pump (Escherichia coli, UniProt P31224); assay: Pellet colour test for AcrAB efflux pump activity in strains pretreated with CCCP; format: cell-based; conditions: 1 μg/mL; cells pretreated 1 hr with CCCP 5 μg/mL; EC, AG100, AG100A versus AG102
T2 construct: strain AG100 is the wild-type strain of E. coli (Wild) also showing normal efflux; endogenous in cells; host or cells: Escherichia coli ATCC11775, AG100 (wild type), AG102 (AcrAB overexpressing), AG100A (acrAB deleted)
T2 sequence (P0AE06 25-397): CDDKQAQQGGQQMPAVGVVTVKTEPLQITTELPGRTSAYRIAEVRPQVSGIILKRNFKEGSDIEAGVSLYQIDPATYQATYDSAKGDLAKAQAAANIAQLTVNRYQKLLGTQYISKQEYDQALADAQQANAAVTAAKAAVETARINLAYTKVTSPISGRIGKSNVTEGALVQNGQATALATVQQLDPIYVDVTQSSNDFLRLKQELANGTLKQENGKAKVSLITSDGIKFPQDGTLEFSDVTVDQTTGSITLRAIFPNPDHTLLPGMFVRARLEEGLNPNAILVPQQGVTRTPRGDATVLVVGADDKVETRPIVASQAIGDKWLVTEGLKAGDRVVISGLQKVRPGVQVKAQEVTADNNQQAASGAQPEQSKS
T2 sequence (P02930 23-493, further chain): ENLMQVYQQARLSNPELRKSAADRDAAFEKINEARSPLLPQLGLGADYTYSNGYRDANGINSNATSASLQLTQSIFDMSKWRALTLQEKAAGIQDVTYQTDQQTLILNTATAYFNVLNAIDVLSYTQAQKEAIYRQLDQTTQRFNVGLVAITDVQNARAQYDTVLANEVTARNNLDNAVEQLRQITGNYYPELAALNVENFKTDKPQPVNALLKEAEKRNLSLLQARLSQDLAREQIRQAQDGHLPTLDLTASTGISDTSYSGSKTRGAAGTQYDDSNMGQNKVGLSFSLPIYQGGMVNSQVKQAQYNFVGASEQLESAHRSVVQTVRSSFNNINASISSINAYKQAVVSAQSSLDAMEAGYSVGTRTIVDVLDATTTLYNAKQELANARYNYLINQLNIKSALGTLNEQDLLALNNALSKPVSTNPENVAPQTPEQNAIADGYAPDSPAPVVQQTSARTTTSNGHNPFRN
T2 sequence (P31224 whole entry): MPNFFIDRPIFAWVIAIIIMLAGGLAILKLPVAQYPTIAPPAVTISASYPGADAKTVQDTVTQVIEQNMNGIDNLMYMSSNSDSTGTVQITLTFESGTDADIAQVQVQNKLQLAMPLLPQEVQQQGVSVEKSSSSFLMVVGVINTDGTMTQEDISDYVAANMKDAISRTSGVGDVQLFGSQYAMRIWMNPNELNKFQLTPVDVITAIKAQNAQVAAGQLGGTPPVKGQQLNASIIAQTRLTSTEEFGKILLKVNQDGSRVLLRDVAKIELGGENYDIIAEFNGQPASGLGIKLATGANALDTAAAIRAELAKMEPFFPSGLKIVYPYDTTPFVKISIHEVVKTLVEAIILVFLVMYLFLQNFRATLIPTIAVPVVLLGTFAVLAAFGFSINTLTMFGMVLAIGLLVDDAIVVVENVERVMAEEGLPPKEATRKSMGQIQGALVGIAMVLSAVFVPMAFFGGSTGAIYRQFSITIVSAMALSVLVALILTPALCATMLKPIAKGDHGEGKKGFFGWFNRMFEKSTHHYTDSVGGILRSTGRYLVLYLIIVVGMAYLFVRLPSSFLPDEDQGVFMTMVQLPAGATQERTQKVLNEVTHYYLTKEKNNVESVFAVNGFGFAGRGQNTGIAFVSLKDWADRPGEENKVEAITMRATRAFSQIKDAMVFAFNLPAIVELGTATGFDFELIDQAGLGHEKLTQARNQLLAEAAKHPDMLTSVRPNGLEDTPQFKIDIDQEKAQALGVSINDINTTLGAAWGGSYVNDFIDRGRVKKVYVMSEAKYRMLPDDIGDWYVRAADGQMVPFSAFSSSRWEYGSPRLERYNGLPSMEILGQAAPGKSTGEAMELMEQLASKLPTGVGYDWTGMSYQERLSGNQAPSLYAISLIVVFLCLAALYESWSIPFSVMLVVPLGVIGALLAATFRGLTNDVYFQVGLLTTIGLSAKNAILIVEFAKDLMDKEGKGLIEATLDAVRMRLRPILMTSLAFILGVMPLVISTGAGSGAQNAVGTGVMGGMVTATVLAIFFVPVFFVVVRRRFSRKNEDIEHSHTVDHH
Description: The inventors also tested compound 053 (1 μg/mL) on the same Escherichia coli strains with varying levels of AcrAB efflux pump expression. The protocol was slightly modified to introduce a pre-treatment step with Carbonyl Cyanide m-Chlorophenylhydrazone (CCCP). CCCP is a chemical inhibitor of oxidative phosphorylation. It interferes with the transmembrane electrochemical gradient and proton-motive force, and consequently reduces ATP production. The effect of CCCP is to reduce the efficiency of efflux pumps, making it easier to perceive differences in staining between different strains.
The experimental protocol is the same as that described in the examples, with the difference that cells are treated for 1 hr with CCCP (5 μg/mL) in phosphate buffer (PPB). After CCP treatment, the whole experiment is run in PPB instead of MH-II broth from step 4 onwards.

[11] = strain AG100 (wild-type), normal efflux
[12] = strain AG102 (AcrAB overexpression)
[13] = strain EC (ATCC11775), normal efflux
[14] = strain SA 1199B (NorA overproducer)

CCCCNc1ccc2nc3cc(NCCC)c(N)cc3[n+](CCCC)c2c1 [compound 29]
staining of bacteria (pellet colour) (AcrAB efflux pump [1]; [11]): very pale pink
staining of bacteria (pellet colour) (AcrAB efflux pump [1]; strain AG100A (acrAB deleted)): dark pink stain
staining of bacteria (pellet colour) (AcrAB efflux pump [1]; [12]): unstained
staining of bacteria (pellet colour) (AcrAB efflux pump [1]; [13]): very pale pink

CCCCCCCC[n+]1c2cc(NCCCC)ccc2nc2cc(NCCOC)c(N)cc21 [compound 392]
staining of bacteria (pellet colour) (AcrAB efflux pump [1]; [11]): very pale pink
staining of bacteria (pellet colour) (AcrAB efflux pump [1]; strain AG100A (acrAB deleted)): dark pink stain
staining of bacteria (pellet colour) (AcrAB efflux pump [1]; [12]): unstained
staining of bacteria (pellet colour) (AcrAB efflux pump [1]; [13]): very pale pink

CCCCNc1ccc2nc3cc(NCCOC)c(N)cc3[n+](CCC)c2c1 [compound 053]
efflux differential between strains after fixation (NorA efflux pump [2]): efflux differential between the different strains remains visible
colour of bacterial pellet (NorA efflux pump [3]; strain CIP 76.25 (reference, basal NorA)): Intermediate colors; also recorded: intermediate pale pink
colour of bacterial pellet (NorA efflux pump [3]; [14]): No coloration; also recorded: white/off-white
colour of bacterial pellet (NorA efflux pump [3]; strain SA K1758 (NorA deleted)): bright dark pink
fluorescence of treated bacteria (NorA efflux pump [4]; strain CIP 76.25 (low NorA level)): intermediate levels of fluorescence
fluorescence of treated bacteria (NorA efflux pump [4]; strain SA 1199 (low NorA level)): intermediate levels of fluorescence
fluorescence of treated bacteria (NorA efflux pump [4]; [14]): almost nil
fluorescence of treated bacteria (NorA efflux pump [4]; strain SA K1758 (NorA pump-free mutant)): high fluorescence
colour of bacterial pellet (BmrA efflux pump [5]): dark pink
colour of bacterial pellet (BmrA efflux pump [6]; BmrA+++ (overexpressing BmrA)): white; also recorded: No coloration
colour of bacterial pellet (BmrA efflux pump [6]; wild-type B. subtilis 168 (DSM 402)): Intermediate pale pink
colour of bacterial pellet (PatA-PatB transporter; DEL strain (PatA-PatB deleted)): dark pink
colour of bacterial pellet (PatA-PatB transporter; OVP strain (overexpressing PatA-PatB)): white
colour of bacterial pellet (PatA-PatB transporter; WT strain (basal PatA-PatB)): dark pink
accumulation in cells (fluorescence intensity by flow cytometry) (NorA efflux pump [7]; NorA-overexpressing strain SA1199B): accumulated very little
accumulation in cells (fluorescence intensity by flow cytometry) (NorA efflux pump [7]; norA-deleted strain SA K1758): accumulated heavily
accumulation in cells (fluorescence intensity by flow cytometry) (NorA efflux pump [7]; reference strain SA): accumulated moderately
accumulation in cells (fluorescence intensity by flow cytometry) (NorA efflux pump [7]; wild-type strain CIP 76.25): accumulated moderately
fluorescence of treated bacteria (BmrA efflux pump [8]): very high
fluorescence of treated bacteria (BmrA efflux pump [9]; overproducing strain (BmrA+++)): almost nil
fluorescence of treated bacteria (BmrA efflux pump [9]; wild-type strain (DSM 402)): intermediate levels of fluorescence
visual distinction of strains by pellet staining (AcrAB efflux pump [10]): visually possible to distinguish
